Results published in patent US20240197593A1, “CLEANSING COMPOSITION FOR FEMALE INTIMATE HYGIENE” (Conopco, Inc., d/b/a UNILEVER, priority 2021, published 2024).
Read-outs that look alike come from different tables or passages of the source.

Tested on: human cadaver skin
Conditions: normalized against time zero reading, average of 6 cells
From the text: Electrical impedance is a proxy indicator of change in skin permeability.
The impedance reading at each cell at different time points was normalized against the time zero-minute reading of that cell. For each test formulation, the impedance reading of each time point is the average normalized value of the 6 repeat cells at that time point. Note: SDS=sodium dodecyl sulphate.

Q: With `CCCCCCCCCCCCOS(=O)(=O)[O-].[Na+]` [SDS, sodium dodecyl sulphate] as the compound, how does the normalized electrical impedance (time 0 minutes) read?
A: 1.00

Q: What about the normalized electrical impedance (time 5 minutes) of the same compound?
A: 0.94

Q: And the normalized electrical impedance (time 10 minutes)?
A: 0.90

Q: What about the normalized electrical impedance (time 15 minutes) of the same compound?
A: 0.86

Q: What about the normalized electrical impedance (time 30 minutes) of the same compound?
A: 0.76
